Data reported in patent US9999619B2, “Piperidin-4-yl azetidine derivatives as JAK1 inhibitors” (Incyte Corporation, priority 2010, dated 2018).

What was measured:
Assay type in all cases: biochemical
[1] = target: human JAK1 (a.a. 837-1142) (Homo sapiens, UniProt P23458); assay: In vitro JAK kinase assay (HTRF, phosphorylation of a biotinylated peptide), JAK1; details: measured at 1 mM ATP
Procedure, shortened: (§1)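 Phosphorylation of a biotinylated peptide by purified His-tagged JAK catalytic domains (insect-cell baculovirus expression) ran 1 hr at room temperature. After stopping with EDTA, Eu-Py20 and SA-APC were bound for 40 minutes and HTRF measured.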

[2] = target: human JAK1 (a.a. 837-1142); assay: as above; details: ratio of JAK2 IC50 to JAK1 IC50, measured at 1 mM ATP
Procedure, shortened: as §1

Jak2 (a.a. 828-1132) = Jak2 (a.a. 828-1132) (Homo sapiens (Human), UniProt O60674); assay: In vitro JAK kinase assay (HTRF, phosphorylation of a biotinylated peptide), JAK2; details: measured at 1 mM ATP
Chain of Jak2 (a.a. 828-1132) (O60674 828-1132): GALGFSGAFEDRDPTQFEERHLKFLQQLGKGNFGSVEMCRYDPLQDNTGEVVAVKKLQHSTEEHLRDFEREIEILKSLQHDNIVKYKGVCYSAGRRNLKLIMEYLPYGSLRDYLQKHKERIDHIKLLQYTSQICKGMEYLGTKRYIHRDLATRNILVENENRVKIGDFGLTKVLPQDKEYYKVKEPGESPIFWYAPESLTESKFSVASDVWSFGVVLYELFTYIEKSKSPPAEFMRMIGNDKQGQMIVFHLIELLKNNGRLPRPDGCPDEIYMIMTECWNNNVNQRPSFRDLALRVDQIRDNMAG
Procedure, shortened: as §1

IC50 [1] [nM]	IC50 Ratio JAK2/JAK1 [2]	IC50 (Jak2 (a.a. 828-1132)) [nM]	SMILES
≤ 5	7.1	10 to 50	Cc1noc(C)c1S(=O)(=O)N1CCC(N2CC(CC#N)(n3cc(-c4ncnc5[nH]ccc45)cn3)C2)CC1 [Example 260, {1-{1-[(3,5-dimethylisoxazol-4-yl)sulfonyl]piperidin-4-yl}-3-[4-(7H-pyrrolo[2,3-d]pyrimidin-4-yl)-1H-pyrazol-1-yl]azetidin-3-yl}acetonitrile]
≤ 5	2.6	≤ 10	Cc1ccc(Cl)cc1NC(=O)N1CCC(N2CC(CC#N)(n3cc(-c4ncnc5[nH]ccc45)cn3)C2)CC1 [Example 168, N-(5-chloro-2-methylphenyl)-4-{3-(cyanomethyl)-3-[4-(7H-pyrrolo[2,3-d]pyrimidin-4-yl)-1H-pyrazol-1-yl]azetidin-1-yl}piperidine-1-carboxamide]
5 to 20	3.2	50 to 100	N#CCC1(n2cc(-c3c(C#N)cnc4[nH]ccc34)cn2)CN(C2CCN(C(=O)c3cc(C(F)(F)F)ncc3Cl)CC2)C1 [Example 341, 4-{1-[1-{1-[5-chloro-2-(trifluoromethyl)isonicotinoyl]piperidin-4-yl}-3-(cyanomethyl)azetidin-3-yl]-1H-pyrazol-4-yl}-1H-pyrrolo[2,3-b]pyridine-5-carbonitrile]
≤ 5	15.0	10 to 50	N#CCC1(n2cc(-c3ncnc4[nH]ccc34)cn2)CN(C2CCN(C(=O)Nc3cscc3Br)CC2)C1 [Example 159, N-(4-bromo-3-thienyl)-4-{3-(cyanomethyl)-3-[4-(7H-pyrrolo[2,3-d]pyrimidin-4-yl)-1H-pyrazol-1-yl]azetidin-1-yl}piperidine-1-carboxamide]
5 to 20	5.1	50 to 100	N#CCC1(n2cc(-c3ncnc4[nH]ccc34)cn2)CN(C2CCN(Cc3ccnc(C(F)(F)F)c3F)CC2)C1 [Example 231, {1-(1-{[3-fluoro-2-(trifluoromethyl)pyridin-4-yl]methyl}piperidin-4-yl)-3-[4-(7H-pyrrolo[2,3-d]pyrimidin-4-yl)-1H-pyrazol-1-yl]azetidin-3-yl}acetonitrile]
≤ 5	6.5	10 to 50	N#CCC1(n2cc(-c3ncnc4[nH]ccc34)cn2)CN(C2CCN(C(=O)OCc3ccccc3)CC2)C1 [Example 389, benzyl 4-{3-(cyanomethyl)-3-[4-(7H-pyrrolo[2,3-d]pyrimidin-4-yl)-1H-pyrazol-1-yl]azetidin-1-yl}piperidine-1-carboxylate]
≤ 5	14.3	10 to 50	N#CCC1(n2cc(-c3ccnc4[nH]ccc34)cn2)CN(C2CCN(C(=O)Nc3ccc(C#N)cc3Cl)CC2)C1 [Example 313, N-(2-chloro-4-cyanophenyl)-4-{3-(cyanomethyl)-3-[4-(1H-pyrrolo[2,3-b]pyridin-4-yl)-1H-pyrazol-1-yl]azetidin-1-yl}piperidine-1-carboxamide]
≤ 5	35.6	50 to 100	N#CCC1(n2ccc(-c3ncnc4[nH]ccc34)c2)CN(C2CCN(C(=O)Nc3ccc(F)cc3C(F)(F)F)CC2)C1 [Example 283, 4-{3-(Cyanomethyl)-3-[3-(7H-pyrrolo[2,3-d]pyrimidin-4-yl)-1H-pyrrol-1-yl]azetidin-1-yl}-N-[4-fluoro-2-(trifluoromethyl)phenyl]piperidine-1-carboxamide]
20 to 30	4.3	> 100	N#CCC1(n2cc(-c3c(C#N)cnc4[nH]ccc34)cn2)CN(C2CCN(C(=O)c3ccc(C#N)c(F)c3)CC2)C1 [Example 334, 4-{1-[1-[1-(4-cyano-3-fluorobenzoyl)piperidin-4-yl]-3-(cyanomethyl)azetidin-3-yl]-1H-pyrazol-4-yl}-1H-pyrrolo[2,3-b]pyridine-5-carbonitrile]
5 to 20	9.9	50 to 100	CCn1nccc1NC(=O)N1CCC(N2CC(CC#N)(n3cc(-c4ncnc5[nH]ccc45)cn3)C2)CC1 [Example 196, 4-{3-(cyanomethyl)-3-[4-(7H-pyrrolo[2,3-d]pyrimidin-4-yl)-1H-pyrazol-1-yl]azetidin-1-yl}-N-(1-ethyl-1H-pyrazol-5-yl)piperidine-1-carboxamide]

The remaining lines, values behind:

SMILES	IC50 [1] [nM]	IC50 Ratio JAK2/JAK1 [2]	IC50 (Jak2 (a.a. 828-1132)) [nM]
N#CCC1(n2cc(-c3ncnc4[nH]ccc34)cn2)CN(C2CCN(C(=O)c3c(F)cccc3F)CC2)C1 [Example 44, {1-[1-(2,6-difluorobenzoyl)piperidin-4-yl]-3-[4-(7H-pyrrolo[2,3-d]pyrimidin-4-yl)-1H-pyrazol-1-yl]azetidin-3-yl}acetonitrile]	≤ 5	2.9	≤ 10
COc1cccc(NC(=O)N2CCC(N3CC(CC#N)(n4cc(-c5ncnc6[nH]ccc56)cn4)C3)CC2)c1 [Example 181, 4-{3-(cyanomethyl)-3-[4-(7H-pyrrolo[2,3-d]pyrimidin-4-yl)-1H-pyrazol-1-yl]azetidin-1-yl}-N-(3-methoxyphenyl)piperidine-1-carboxamide]	≤ 5	4.9	10 to 50
N#CCC1(n2cc(-c3ncnc4[nH]ccc34)cn2)CN(C2CCN(C(=O)c3cc(F)cc(C(F)(F)F)c3)CC2)C1 [Example 23, {1-{1-[3-fluoro-5-(trifluoromethyl)benzoyl]piperidin-4-yl}-3-[4-(7H-pyrrolo[2,3-d]pyrimidin-4-yl)-1H-pyrazol-1-yl]azetidin-3-yl}acetonitrile]	≤ 5	6.7	10 to 50
N#CCC1(n2cc(-c3c(F)cnc4[nH]ccc34)cn2)CN(C2CCN(C(=O)c3c(F)cncc3F)CC2)C1 [Example 321, {1-[1-(3,5-difluoroisonicotinoyl)piperidin-4-yl]-3-[4-(5-fluoro-1H-pyrrolo[2,3-b]pyridin-4-yl)-1H-pyrazol-1-yl]azetidin-3-yl}acetonitrile]	≤ 5	3.0	10 to 50
N#CCC1(n2cc(-c3ncnc4[nH]ccc34)cn2)CN(C2CCN(Cc3cc4ccccc4nc3Cl)CC2)C1 [Example 214, {1-{1-[(2-chloroquinolin-3-yl)methyl]piperidin-4-yl}-3-[4-(7H-pyrrolo[2,3-d]pyrimidin-4-yl)-1H-pyrazol-1-yl]azetidin-3-yl}acetonitrile]	5 to 20	2.5	10 to 50
N#CCC1(n2cc(-c3ncnc4[nH]ccc34)cn2)CN(C2CCN(C(=O)Nc3ccsc3)CC2)C1 [Example 179, 4-{3-(cyanomethyl)-3-[4-(7H-pyrrolo[2,3-d]pyrimidin-4-yl)-1H-pyrazol-1-yl]azetidin-1-yl}-N-3-thienylpiperidine-1-carboxamide]	5 to 20	3.8	50 to 100
N#CCC1(n2cc(-c3ncnc4[nH]ccc34)cn2)CN(C2CCN(C(=O)c3sc4cccc(F)c4c3Cl)CC2)C1 [Example 92, {1-{1-[(3-chloro-4-fluoro-1-benzothien-2-yl)carbonyl]piperidin-4-yl}-3-[4-(7H-pyrrolo[2,3-d]pyrimidin-4-yl)-1H-pyrazol-1-yl]azetidin-3-yl}acetonitrile]	≤ 5	2.8	≤ 10
N#CCC1(n2cc(-c3c(F)cnc4[nH]ccc34)cn2)CN(C2CCN(C(=O)c3ccnc(C(F)(F)F)n3)CC2)C1 [Example 353, [3-[4-(5-Fluoro-1H-pyrrolo[2,3-b]pyridin-4-yl)-1H-pyrazol-1-yl]-1-(1-{[2-(trifluoromethyl)pyrimidin-4-yl]carbonyl}piperidin-4-yl)azetidin-3-yl]acetonitrile]	5 to 20	5.0	10 to 50
N#CCC1(n2cc(-c3ncnc4[nH]ccc34)cn2)CN(C2CCN(C(=O)c3ccc(F)c(Cl)c3)CC2)C1 [Example 34, {1-[1-(3-chloro-4-fluorobenzoyl)piperidin-4-yl]-3-[4-(7H-pyrrolo[2,3-d]pyrimidin-4-yl)-1H-pyrazol-1-yl]azetidin-3-yl}acetonitrile]	5 to 20	6.0	10 to 50
CN(C)c1ccc(C(=O)N2CCC(N3CC(CC#N)(n4cc(-c5ncnc6[nH]ccc56)cn4)C3)CC2)c(F)c1C#N [Example 51, 3-[(4-{3-(cyanomethyl)-3-[4-(7H-pyrrolo[2,3-d]pyrimidin-4-yl)-1H-pyrazol-1-yl]azetidin-1-yl}piperidin-1yl)carbonyl]-6-(dimethylamino)-2-fluorobenzonitrile]	≤ 5	6.3	≤ 10
N#CCC1(n2ccc(-c3ncnc4[nH]ccc34)c2)CN(C2CCN(C(=O)c3cccc(OC(F)(F)F)c3F)CC2)C1 [Example 281, {1-{1-[2-fluoro-3-(trifluoromethoxy)benzoyl]piperidin-4-yl}-3-[3-(7H-pyrrolo[2,3-d]pyrimidin-4-yl)-1H-pyrrol-1-yl]azetidin-3-yl}acetonitrile]	≤ 5	10.0	10 to 50
N#CCC1(n2ccc(-c3ncnc4[nH]ccc34)c2)CN(C2CCN(C(=O)Nc3cnccc3C(F)(F)F)CC2)C1 [Example 291, 4-{3-(cyanomethyl)-3-[3-(7H-pyrrolo[2,3-d]pyrimidin-4-yl)-1H-pyrrol-1-yl]azetidin-1-yl}-N-[4-(trifluoromethyl)pyridin-3-yl]piperidine-1-carboxamide]	≤ 5	20.3	50 to 100
COc1c(Br)cc(C(=O)N2CCC(N3CC(CC#N)(n4cc(-c5ncnc6[nH]ccc56)cn4)C3)CC2)cc1Br [Example 50, {1-[1-(3,5-dibromo-4-methoxybenzoyl)piperidin-4-yl]-3-[4-(7H-pyrrolo[2,3-d]pyrimidin-4-yl)-1H-pyrazol-1-yl]azetidin-3-yl}acetonitrile]	≤ 5	6.9	≤ 10
